Experimental data as given in patent publication US20230141433A1, “TRICYCLIC PESTICIDAL COMPOUNDS” (BASF SE, priority 2020, published 2023).

Tests used:
Assay type in all cases: in vivo
[1] = tested on: boll weevil (Anthonomus grandis); experiment: Boll weevil (Anthonomus grandis) egg and larval mortality, insect diet in 96-well microtiter plates; details: 120 h, 5 days, read-out: mortality in comparison with untreated controls (egg and larval mortality)
Description: (§1) If not otherwise specified, the test solutions are prepared as follows: The active compound is dissolved at the desired concentration in a mixture of 1:1 (vol:vol) distilled water:acetone. The test solution is prepared at the day of use. Test solutions are prepared in general at concentrations of 2500 ppm, 1000 ppm, 800 ppm, 500 ppm, 300 ppm, 100 ppm and 30 ppm (wt/vol).
Boll Weevil (Anthonomus grandis)
(§2) For evaluating control of boll weevil (Anthonomus grandis) the test unit consisted of 96-well-microtiter plates containing an insect diet and 5-10 A. grandis eggs. The compounds were formula ted using a solution containing 75% v/v water and 25% v/v DMSO. Different concentrations of formulated compounds were sprayed onto the insect diet at 5 μl, using a custom built micro atomizer, at two replications. After application, microtiter plates were incubated at about 25±1° C. and about 75±5% relative humidity for 5 days. Egg and larval mortality was then visually assessed.

[2] = tested on: tobacco budworm (Heliothis virescens); experiment: Tobacco budworm (Heliothis virescens) egg and larval mortality, insect diet in 96-well microtiter plates; details: 120 h, 5 days, read-out: mortality in comparison with untreated controls (egg and larval mortality)
Description: as §1
Tobacco Budworm (Heliothis virescens)
as §2, with “of tobacco budworm (Heliothis virescens)” for “of boll weevil (Anthonomus grandis)”, “and 15-25 H. virescens” for “and 5-10 A. grandis”, “were formulated” for “were formula ted”, “at 10” for “at 5”, “about 28±1°” for “about 25±1°”, “about 80±5%” for “about 75±5%”

[3] = tested on: green peach aphid (Myzus persicae); experiment: Green peach aphid (Myzus persicae) systemic test, artificial diet under membrane; details: 72 h, 3 days, read-out: mortality in comparison with untreated controls (aphid mortality)
Description: as §1
Green Peach Aphid (Myzus persicae) For evaluating control of green peach aphid (Myzus persicae) through systemic means the test unit consisted of 96-well-microtiter plates containing liquid artificial diet under an artificial membrane. The compounds were formulated using a solution containing 75% v/v water and 25% v/v DMSO. Different concentrations of formulated compounds were pipetted into the aphid diet, using a custom built pipetter, at two replications. After application, 5-8 adult aphids were placed on the artificial membrane inside the microtiter plate wells. The aphids were then allowed to suck on the treated aphid diet and incubated at about 23±1° C. and about 50±5% relative humidity for 3 days. Aphid mortality and fecundity was then visually assessed.

[4] = tested on: yellow fever mosquito (Aedes aegypti); experiment: whole plant or invertebrate; details: 48 h, 2 days, read-out: mortality in comparison with untreated controls (larval mortality)
Description: as §1
Yellow Fever Mosquito (Aedes aegypti)
For evaluating control of yellow fever mosquito (Aedes aegypti) the test unit consisted of 96-well-microtiter plates containing 200 μl of tap water per well and 5-15 freshly hatched A. aegypti larvae. The active compounds were formulated using a solution containing 75% (v/v) water and 25% (v/v) DMSO. Different concentrations of formulated compounds or mixtures were sprayed onto the insect diet at 2.5 μl, using a custom built micro atomizer, at two replications. After application, microtiter plates were incubated at 28±1° C., 80±5% RH for 2 days. Larval mortality was then visually assessed.

[5] = tested on: vetch aphid (Megoura viciae); experiment: Vetch aphid (Megoura viciae) contact or systemic test on broad bean leaf disks; details: foliar, 120 h, 5 days, read-out: mortality in comparison with untreated controls (aphid mortality)
Description: as §1
Vetch Aphid (Megoura viciae)
For evaluating control of vetch aphid (Megoura viciae) through contact or systemic means the test unit consisted of 24-well-microtiter plates containing broad bean leaf disks.
The compounds were formulated using a solution containing 75% v/v water and 25% v/v DMSO. Different concentrations of formulated compounds were sprayed onto the leaf disks at 2.5 μl, using a custom built micro atomizer, at two replications. After application, the leaf disks were air-dried and 5-8 adult aphids placed on the leaf disks inside the microtiter plate wells. The aphids were then allowed to suck on the treated leaf disks and incubated at about 23±1° C. and about 50±5% relative humidity for 5 days. Aphid mortality and fecundity was then visually assessed.

SMILES	mortality at 2500 ppm [1]	mortality at 2500 ppm [2]	mortality at 2500 ppm [3]	mortality at 800 ppm [4]	mortality at 2500 ppm [5]	mortality at 800 ppm [1]	mortality at 800 ppm [2]	mortality at 800 ppm [3]
CCS(=O)(=O)c1c(-c2nc3cnc4c(OC(F)(F)F)cccc4c3n2C)nc2ccc(C(F)(F)F)cn12 [C-1]	> 75%	> 75%	> 75%	≥ 75%	> 75%	–	–	–
CCS(=O)(=O)c1c(-c2nc3cnc4c(C(F)(F)F)cccc4c3n2C)nc2ccc(C(F)(F)F)cn12 [C-2]	> 75%	> 75%	> 75%	≥ 75%	> 75%	–	–	–
CCS(=O)(=O)c1c(-c2nc3cnc4c(C(F)(F)F)cccc4c3n2C)nc2ccccn12 [C-3]	> 75%	> 75%	> 75%	≥ 75%	> 75%	–	–	–
CCS(=O)(=O)c1c(-c2nc3cnc4c(OC(F)(F)F)cccc4c3n2C)nc2ccccn12 [C-4, 2-(3-ethylsulfonylimidazo[1,2-a]pyridin-2-yl)-1-methyl-6-(trifluoromethoxy)imidazo[4,5-c]quinoline]	> 75%	> 75%	> 75%	≥ 75%	> 75%	–	–	–
CCS(=O)(=O)c1c(-c2nc3cnc4cc(C(F)(F)F)ccc4c3n2C)nc2ccccn12 [C-6]	> 75%	> 75%	–	–	–	–	–	–
CCS(=O)(=O)c1c(-c2cn3c(ccc4c(C(F)(F)F)ccnc43)n2)nc2ccccn12 [C-7, 8-(3-ethylsulfonylimidazo[1,2-a]pyridin-2-yl)-4-(trifluoromethyl)imidazo[1,2-a][1,8]naphthyridine]	> 75%	> 75%	> 75%	≥ 75%	–	–	–	–
CCS(=O)(=O)c1c(-c2cn3c(ccc4c(C(F)(F)F)cc(C(F)(F)F)nc43)n2)nc2ccc(C(F)(F)F)cn12 [C-8]	–	–	–	–	–	> 75%	> 75%	–
CCS(=O)(=O)c1c(-c2cn3c(ccc4c(C(F)(F)F)ccnc43)n2)nc2ccc(C(F)(F)F)cn12 [C-9]	–	–	–	≥ 75%	–	> 75%	> 75%	> 75%
CCS(=O)(=O)c1c(-c2cn3c(ccc4c(C(F)(F)F)ccnc43)n2)nn2ccccc12 [C-10]	–	–	–	–	–	> 75%	–	> 75%
CCS(=O)(=O)c1c(-c2nc3cc(C(F)(F)F)c4ncccc4c3n2C)nc2ccccn12 [C-11, 2-(3-ethylsulfonylimidazo[1,2-a]pyridin-2-yl)-1-methyl-5-(trifluoromethyl)imidazo[4,5-f]quinoline]	–	–	–	–	–	> 75%	> 75%	> 75%
CCS(=O)(=O)c1c(-c2nc3cnc4c(C(F)(F)F)cccc4c3n2C)nc2n1CCCC2 [C-12]	–	–	–	≥ 75%	–	> 75%	> 75%	> 75%
CCS(=O)(=O)c1c(-c2nc3cnc4cc(OC(F)(F)F)ccc4c3n2C)nc2n1CCCC2 [C-14]	–	–	–	–	–	–	> 75%	> 75%
CCS(=O)(=O)c1c(-c2nc3cnc4cc(OC(F)(F)F)ccc4c3n2C)nc2ncccn12 [C-15]	–	–	–	–	–	–	–	> 75%
CCS(=O)(=O)c1c(-c2nc3cnc4c(C(F)(F)F)cccc4c3n2C)nc2ncccn12 [C-16]	–	–	–	–	–	–	–	> 75%
CCS(=O)(=O)c1c(-c2nc3cnc4c(OC(F)(F)F)cccc4c3n2C)nc2ncccn12 [C-17]	–	–	–	–	–	–	–	> 75%
CCS(=O)(=O)c1c(-c2nc3cnc4cc(C(F)(F)F)ccc4c3n2C)nc2ncccn12 [C-18]	–	–	–	–	–	–	> 75%	–
CCS(=O)(=O)c1c(-c2nc3cnc4c(C(F)(F)F)cccc4c3n2C)nn2ccccc12 [C-19]	–	–	–	≥ 75%	–	> 75%	> 75%	> 75%
CCS(=O)(=O)c1c(-c2nc3cnc4cc(C(F)(F)F)ccc4c3n2C)nn2ccccc12 [C-20]	–	–	–	–	–	> 75%	> 75%	–
CCS(=O)(=O)c1c(-c2nc3cnc4c(OC(F)(F)F)cccc4c3n2C)nn2ccc(C(C)(C)C#N)cc12 [C-22]	–	–	–	–	–	> 75%	> 75%	> 75%
CCS(=O)(=O)c1c(-c2nc3cnc4cc(OC(F)(F)F)ccc4c3n2C)nn2ccc(C(C)(C)C#N)cc12 [C-23]	–	–	–	–	–	> 75%	> 75%	–
CCS(=O)(=O)c1c(-c2nc3cnc4cc(C(F)(F)F)ccc4c3n2C)nc2ccc(Br)cn12 [C-27]	–	–	–	≥ 75%	–	> 75%	> 75%	–
CCS(=O)(=O)c1c(-c2nc3cnc4c(C(F)(F)F)cccc4c3n2C)nc2ccc(Br)cn12 [C-28]	–	–	–	≥ 75%	–	> 75%	> 75%	> 75%
CCS(=O)(=O)c1c(-c2nc3cnc4cc(OC(F)(F)F)ccc4c3n2C)nn2ccccc12 [C-29]	–	–	–	≥ 75%	–	> 75%	> 75%	> 75%
